SMILES strings stand for the structures.

The subject of assay [1] is OA31 (DNA, aptamer) CCACCAACGAGAGTCAGAAAACCATGGTGGG
Nature of the assay: electrochemical aptasensor (DPV). The settings on record: 150 mM NaCl, 2 mM Mg2+, capture probe P31_14.

For assay [2], the system named is OA63 (DNA, aptamer) CCGGGTGGGTGGGTGTGGTCTTGTATTTGATTATGTCTGTCGGCGCTTTTTGGCCCCTTCGTT
The assay can be described thus: electrochemical aptasensor (DPV). The settings on record: 150 mM NaCl, 2 mM Mg2+; 50 mM Tris pH 7.5, 25 °C, 30 min; capture probe P63_8; 5-200 nM OA.

Take `C=C1[C@@H](O)[C@@H]2O[C@]3(CC[C@H](/C=C/[C@@H](C)[C@@H]4CC(C)=C[C@@]5(O[C@H](C[C@@](C)(O)C(=O)O)CC[C@H]5O)O4)O3)CC[C@H]2O[C@@H]1[C@@H](O)C[C@H](C)[C@H]1O[C@@]2(CC[C@H]1C)OCCC[C@H]2C`: in assay [1] (50 mM Tris pH 7.5, sensitivity 2 times lower than for OA), the binding entry is given as “yes”. For `C=C1[C@@H](O)[C@@H]2O[C@]3(CC[C@H](/C=C/[C@@H](C)[C@@H]4CC(C)=C[C@@]5(O[C@H](C[C@@](C)(O)C(=O)O)CC[C@H]5O)O4)O3)CC[C@H]2O[C@@H]1[C@@H](O)C[C@H](C)[C@H]1O[C@@]2(CCCCO2)CC[C@H]1C`, the binding result in assay [1] (50 mM Tris pH 7.5, 4 °C, 5 min, 5-200 nM OA) is “yes”; in assay [2], “yes”.

For the origin of these results see publication PMC12562321 (2025).
